Test results as given in patent US20220213055A1, “SUBSTITUTED (PIPERIDIN-1-YL)ARYL ANALOGUES FOR MODULATING AVIL ACTIVITY” (University of Virginia Patent Foundation, priority 2019, published 2022).
Read-outs that look alike come from different tables or passages of the source.

How the values were obtained:
[1] = tested on: Glioblastoma cell line U87 cells; experiment: MTT cell viability assay, glioblastoma cells; type: cell-based; conditions: U87 glioblastoma cells, MTT after three days
Description: (§1) Different concentration of compounds were added to the cells. Three days later, a MTT assay (Sigma) was performed to monitor cell viability.
(§2) In this example, samples of glioblastoma cells (U87) and astrocyte cells (non-cancer control) were exposed various disclosed compounds to determine the effectiveness of the compounds for inhibiting cell growth.

[2] = tested on: Immortalized human astrocytes; experiment: MTT cell viability assay, astrocytes (non-cancer control); type: cell-based; conditions: immortalized human astrocytes, MTT after three days
Description: as §1, §2

Row | SMILES | IC50 ([1]; Homo sapiens, U-87 MG, 72 h) | IC50 [1] | IC50 ([2]; Homo sapiens, Astrocyte, 72 h) | IC50 ([2]; read-out: IC50 (astrocyte))
1 | Nc1nccc(N2CCCCC2)n1 [JDDUVA12, 4-(Piperidin-1-yl)pyrimidin-2-amine] | > 80 µM |  | > 80 µM | 
2 | COC(=O)C1CCCN(c2ccnc(N)n2)C1 (stereo not shown) [JDDUVA16] | > 80 µM |  |  | 
3 | Nc1nccc(N2CCCC(CO)C2)n1 (stereo not shown) [JDDUVA18, (1-(2-Aminopyrimidin-4-yl)piperidin-3-yl)methanol] | > 80 µM |  |  | 
4 | COC(=O)C1(CCCc2ccccc2)CCCN(c2ccnc(N)n2)C1 (stereo not shown) [JDDUVA20] | ~10.9 µM |  | 70 µM | 
5 | Nc1nccc(N2CCCC(CO)(CCCc3ccccc3)C2)n1 (stereo not shown) [JDDUVA28] |  | ~12.2 µM |  | > 80 µM
6 | Nc1nccc(N2CCCC(CO)(CCCc3ccccc3)C2)n1 (stereo not shown) [JDDUVA38] |  | ~11 µM |  | 56 µM
7 | Cc1nc(N)nc(N2CCC(CO)(CCCc3ccccc3)CC2)c1C [JDDUVA43, (1-(2-Amino-5,6-dimethylpyrimidin-4-yl)-4-(3-phenylpropyl)piperidin-4-yl)methanol] |  |  | 47 µM | 60 µM
8 | OCC1(CCCc2ccccc2)CCN(c2cc(C(F)(F)F)ncn2)CC1 [JDDUVA47, (4-(3-Phenylpropyl)-1-(6-(trifluoromethyl)pyrimidin-4-yl)piperidin-4-yl)methanol] | 13 µM |  | > 80 µM | 
9 | Cc1c(O)ncnc1N1CCC(CO)(CCCc2ccccc2)CC1 [JDDUVA48, 6-(4-(Hydroxymethyl)-4-(3-phenylpropyl)piperidin-1-yl)-5-methylpyrimidin-4-ol] | 14.1 µM |  | 7.32 µM | 
10 | Nc1nccc(N2CCC(CO)(CCCc3ccccc3)CC2)n1 [JDDUVA49, (1-(2-Aminopyrimidin-4-yl)-4-(3-phenylpropyl)piperidin-4-yl)methanol] | 3 µM |  | > 80 µM | 
11 | Cc1c(Cl)ncnc1N1CCC(CO)(CCCc2ccccc2)CC1 [JDDUVA50, (1-(6-Chloro-5-methylpyrimidin-4-yl)-4-(3-phenylpropyl)piperidin-4-yl)methanol] | 21 µM |  | > 80 µM | 
12 | Nc1ncnc(N2CCC(CO)(CCCc3ccccc3)CC2)c1N [JDDUVA51, (1-(5,6-Diaminopyrimidin-4-yl)-4-(3-phenylpropyl)piperidin-4-yl)methanol] | 12 µM |  | > 80 µM | 
13 | COc1nc(OC)nc(N2CCC(CO)(CCCc3ccccc3)CC2)n1 [JDDUVA52, (1-(4,6-Dimethoxy-1,3,5-triazin-2-yl)-4-(3-phenylpropyl)piperidin-4-yl)methanol] | 41 µM |  | > 80 µM | 
14 | Cc1nccnc1N1CCC(CO)(CCCc2ccccc2)CC1 [JDDUVA53, (1-(3-Methylpyrazin-2-yl)-4-(3-phenylpropyl)piperidin-4-yl)methanol] | 30 µM |  | > 80 µM | 
15 | Nc1cncc(N2CCC(CO)(CCCc3ccccc3)CC2)n1 [JDDUVA55] | 16 µM |  | > 80 µM | 
16 | CC1CCN(c2ccnc(N)n2)CC1 [JDDUVA59, 4-(4-Methylpiperidin-1-yl)pyrimidin-2-amine] | 72 µM |  | > 80 µM | 
17 | OCC1(CCCc2ccccc2)CCN(c2cc(Cl)ncn2)CC1 [JDDUVA60, (1-(6-Chloropyrimidin-4-yl)-4-(3-phenylpropyl)piperidin-4-yl)methanol] |  |  | > 80 µM | 
18 | Nc1nccc(N2CCCCC2CO)n1 (stereo not shown) [JDDUVA61, (1-(2-Aminopyrimidin-4-yl)piperidin-2-yl)methanol] | > 80 µM |  | > 80 µM | 
19 | Nc1nccc(N2CCC(c3ccccc3)CC2)n1 [JDDUVA63, 4-(4-Phenylpiperidin-1-yl)pyrimidin-2-amine] | 16 µM |  | > 80 µM | 
20 | COc1c(Cl)ncnc1N1CCC(CO)(CCCc2ccccc2)CC1 [JDDUVA67, (1-(6-Chloro-5-methoxypyrimidin-4-yl)-4-(3-phenylpropyl)piperidin-4-yl)methanol] | ~2.5 µM |  | ~6 µM | 
21 | CCc1ncnc(N2CCC(CO)(CCCc3ccccc3)CC2)c1F [JDDUVA68, (1-(6-Ethyl-5-fluoropyrimidin-4-yl)-4-(3-phenylpropyl)piperidin-4-yl)methanol] | 3.6 µM |  | 12.5 µM | 
22 | Nc1ccnc(N2CCC(CO)(CCCc3ccccc3)CC2)n1 [JDDUVA69, (1-(4-Aminopyrimidin-2-yl)-4-(3-phenylpropyl)piperidin-4-yl)methanol] | 13.6 µM |  | > 80 µM | 
23 | Nc1nccc(N2CCc3ccccc3C2)n1 [JDDUVA71, 4-(3,4-Dihydroisoquinolin-2(1H)-yl)pyrimidin-2-amine] | > 80 µM |  | > 80 µM | 
24 | CCOC(=O)C1(CCCc2ccccc2)CCN(C(=O)OC(C)(C)C)CC1 [JDDUVA76] | ~30 µM |  | ~60 µM | 
25 | Nc1nc(N)nc(N2CCC(CO)(CCCc3ccccc3)CC2)n1 [JDDUVA78, (1-(4,6-Diamino-1,3,5-triazin-2-yl)-4-(3-phenylpropyl)piperidin-4-yl)methanol] | 12 µM |  | ~40 µM | 
26 | Clc1cc(N2CCc3ccccc3C2)ncn1 [JDDUVA81] | > 80 µM |  | > 80 µM | 
27 | Cc1ncnc(N2CCC(CO)(CCCc3ccccc3)CC2)c1C [JDDUVA96, (1-(5,6-Dimethylpyrimidin-4-yl)-4-(3-phenylpropyl)piperidin-4-yl)methanol] | ~4 µM |  | ~8 µM | 

Continued, in another order:

Row | IC50 ([1]; Homo sapiens, U-87 MG, 72 h) | IC50 [1] | SMILES | IC50 ([2]; Homo sapiens, Astrocyte, 72 h) | IC50 ([2]; read-out: IC50 (astrocyte))
28 | > 80 µM |  | COC(=O)C1CCCNC1 (stereo not shown) [PLH1155] | > 80 µM | 
29 | > 80 µM |  | COC(=O)C1CCCN(C(=O)OC(C)(C)C)C1 (stereo not shown) [PLH1190] | > 80 µM | 
30 | ~22.5 µM |  | COC(=O)C1(CCCc2ccccc2)CCCN(C(=O)OC(C)(C)C)C1 (stereo not shown) [PLH1195] | 65 µM | 
31 | ~30 µM |  | CC(C)(C)OC(=O)N1CCCC(CO)(CCCc2ccccc2)C1 (stereo not shown) [PLH1196] | > 80 µM | 
32 | ~80 µM |  | O=C(O)C1(CCCc2ccccc2)CCCNC1 (stereo not shown) [PLH1197] | > 80 µM | 
33 |  | 6 µM | COC(=O)C1(CCCc2ccccc2)CCCN(c2ccnc(N)n2)C1 (stereo not shown) [PLH1209, Methyl 1-(2-aminopyrimidin-4-yl)-3-(3-phenylpropyl)piperidine-3-carboxylate] |  | 76 µM
34 | > 80 µM |  | OCC1(CCCc2ccccc2)CCCNC1 (stereo not shown) [PLH1211] | > 80 µM | 
35 | ~11.7 µM |  | Nc1nccc(N2CCCC(CO)(CCCc3ccccc3)C2)n1 (stereo not shown) [PLH1215, (1-(2-Aminopyrimidin-4-yl)-3-(3-phenylpropyl)piperidin-3-yl)methanol] | > 80 µM | 
36 | ~50 µM |  | CS(=O)(=O)OCC1(CCCc2ccccc2)CCCN(c2ccnc(N)n2)C1 (stereo not shown) [PLH1224] | > 80 µM | 
37 | ~15 µM |  | CCOC(=O)C1(CCCc2ccccc2)CCCN(C(=O)OC(C)(C)C)C1 (stereo not shown) [PLH1225] | > 80 µM | 
38 | 63.6 µM |  | COc1nc(OC)nc(N2CCCC(CO)(CCCc3ccccc3)C2)n1 (stereo not shown) [PLH1230, (1-(4,6-Dimethoxy-1,3,5-triazin-2-yl)-3-(3-phenylpropyl)piperidin-3-yl)methanol] | > 80 µM | 
39 | > 80 µM |  | Nc1ncnc(N2CCCC(CO)(CCCc3ccccc3)C2)n1 (stereo not shown) [PLH1239, (1-(4-Amino-1,3,5-triazin-2-yl)-3-(3-phenylpropyl)piperidin-3-yl)methanol] |  | 
40 | ~1.7 µM | ~3.4 µM | Nc1nccc(N2CCCC(CCCc3ccccc3)(COCc3ccccc3)C2)n1 (stereo not shown) [PLH1253, 4-(3-((Benzyloxy)methyl)-3-(3-phenylpropyl)piperidin-1-yl)pyrimidin-2-amine] |  | 
